These are literature values, as cited in article PMC6650409, “Modeling the binding of diverse ligands within the Ah receptor ligand binding domain” (Scientific Reports, 2019).

One series deals with T1, mAhR (Mus musculus, UniProt P30561).
T1 construct: made in house; host or cells: in vitro, Promega TNT Quick coupled transcription/translation rabbit reticulocyte lysate
T1 sequence (P30561 10-848): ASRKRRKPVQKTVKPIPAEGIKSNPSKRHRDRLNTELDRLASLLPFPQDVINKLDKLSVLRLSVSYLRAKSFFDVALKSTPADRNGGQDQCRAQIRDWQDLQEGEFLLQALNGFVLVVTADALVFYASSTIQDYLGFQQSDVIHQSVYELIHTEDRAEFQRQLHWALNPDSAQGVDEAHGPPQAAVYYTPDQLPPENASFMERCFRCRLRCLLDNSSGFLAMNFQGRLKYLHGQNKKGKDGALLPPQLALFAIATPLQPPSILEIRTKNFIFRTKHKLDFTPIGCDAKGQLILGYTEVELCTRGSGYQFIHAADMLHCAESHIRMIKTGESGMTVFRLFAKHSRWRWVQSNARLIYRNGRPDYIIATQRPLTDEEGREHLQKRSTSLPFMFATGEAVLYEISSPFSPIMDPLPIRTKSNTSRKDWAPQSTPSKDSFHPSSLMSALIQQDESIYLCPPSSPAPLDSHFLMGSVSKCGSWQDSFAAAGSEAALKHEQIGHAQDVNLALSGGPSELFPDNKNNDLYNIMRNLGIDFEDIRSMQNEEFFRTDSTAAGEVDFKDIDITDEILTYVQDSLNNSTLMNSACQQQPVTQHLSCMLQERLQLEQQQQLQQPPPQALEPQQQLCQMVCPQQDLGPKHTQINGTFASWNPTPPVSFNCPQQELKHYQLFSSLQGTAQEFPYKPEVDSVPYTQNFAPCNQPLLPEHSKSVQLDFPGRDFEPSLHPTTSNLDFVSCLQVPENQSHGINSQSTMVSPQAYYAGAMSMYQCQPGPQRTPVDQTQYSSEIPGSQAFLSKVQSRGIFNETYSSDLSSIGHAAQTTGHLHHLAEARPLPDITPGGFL
The arrangement: method as in PMID 21981577. Particulars: in words; cited from earlier work.

The subject of the next series is AhR. Set-up: method as in PMID 21981577. Particulars: in words; cited from earlier work.
Series [1] deals with zebrafish AhR1a (zfAhR1a). Particulars: cited from earlier work.

Each structure is given as a SMILES string.

`O=[N+]([O-])c1cc(C(F)(F)F)ccc1NCc1ccsc1` [THS-017]: the “displacement of [3H]TCDD specific binding to the mAhR” value at mAhR is on record as “could competitively displace”. Also, the AhR agonist activity result with AhR is listed as “acted as AhR agonists”.

On to `O=[N+]([O-])c1cc(C(F)(F)F)ccc1NCc1ccco1` [THS-020], for which the “displacement of [3H]TCDD specific binding to the mAhR” value at mAhR is listed as “could competitively displace”. Moreover, the AhR agonist activity result in the series with AhR is reported as “acted as AhR agonists”.

On to `Cc1oncc1C(=O)Nc1ccc(C(F)(F)F)cc1` [LEFL, Leflunomide], for which, in series [1], the “ligand binding to zfAhR1a” value was “could still bind and be activated”.
